{
  "source": "ChEMBL document CHEMBL5696441",
  "about": "(Nat Chem Biol, 2011)",
  "key": {"[1]": {"biological_target": "Tyrosine-protein kinase Fgr (Homo sapiens) (UniProt P09769)", "test": "Inhibition of FGR (unknown origin) assessed as remaining activity at 1 uM by Kinome scan method relative to control"}, "[2]": {"biological_target": "Cyclin-dependent kinase 7 (Homo sapiens) (UniProt P50613)", "sequence (P50613 whole entry)": "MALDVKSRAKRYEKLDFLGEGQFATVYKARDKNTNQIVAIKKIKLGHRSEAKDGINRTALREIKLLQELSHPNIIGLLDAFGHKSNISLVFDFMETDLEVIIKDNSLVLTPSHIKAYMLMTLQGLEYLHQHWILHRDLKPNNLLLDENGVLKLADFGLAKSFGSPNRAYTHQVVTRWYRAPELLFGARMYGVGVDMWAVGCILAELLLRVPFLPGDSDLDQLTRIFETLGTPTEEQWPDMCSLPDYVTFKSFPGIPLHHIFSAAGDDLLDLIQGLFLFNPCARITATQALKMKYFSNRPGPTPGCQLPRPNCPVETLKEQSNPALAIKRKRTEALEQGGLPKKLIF", "test": "Inhibition of CDK7 (unknown origin) assessed as remaining activity at 1 uM by Kinome scan method relative to control"}, "[3]": {"biological_target": "Dual specificity protein kinase CLK4 (Homo sapiens) (UniProt Q9HAZ1)", "sequence (Q9HAZ1 whole entry, looked up)": "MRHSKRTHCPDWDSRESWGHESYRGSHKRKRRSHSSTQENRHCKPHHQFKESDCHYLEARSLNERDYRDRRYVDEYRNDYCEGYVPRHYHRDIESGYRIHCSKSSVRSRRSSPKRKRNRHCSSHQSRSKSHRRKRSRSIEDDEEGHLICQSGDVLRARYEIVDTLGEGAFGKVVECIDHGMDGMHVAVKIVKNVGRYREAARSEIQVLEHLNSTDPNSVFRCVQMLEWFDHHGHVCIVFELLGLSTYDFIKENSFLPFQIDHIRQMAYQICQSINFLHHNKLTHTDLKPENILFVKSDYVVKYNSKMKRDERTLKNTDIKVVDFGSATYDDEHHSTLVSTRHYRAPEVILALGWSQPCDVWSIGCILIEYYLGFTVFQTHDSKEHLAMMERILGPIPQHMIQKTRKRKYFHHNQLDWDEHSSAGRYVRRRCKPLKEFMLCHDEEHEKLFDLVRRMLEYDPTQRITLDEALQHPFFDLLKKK", "test": "Inhibition of human CLK4 assessed as residual activity at 1 uM using MBP as substrate in presence of 33P-ATP by ProQinase assay relative to control"}, "[4]": {"biological_target": "Lymphokine-activated killer T-cell-originated protein kinase (Homo sapiens) (UniProt Q96KB5)", "test": "Inhibition of human PBK assessed as residual activity at 1 uM using histon H1 as substrate in presence of 33P-ATP by ProQinase assay relative to control"}, "[5]": {"biological_target": "Serine/threonine-protein kinase PAK 2 (Homo sapiens) (UniProt Q13177)", "test": "Inhibition of human PAK2 assessed as residual activity at 1 uM using bio-4xCHKT as substrate in presence of 33P-ATP by ProQinase assay relative to control"}, "TAK1/TAB1 (Homo sapiens)": {"biological_target": "TAK1/TAB1 (Homo sapiens) (UniProt Q15750+O43318)", "test": "Inhibition of human MAP3K7/MAP3K7IP1 assessed as residual activity at 1 uM using RB-S6P as substrate in presence of 33P-ATP by ProQinase assay relative to control", "assay_type": "protein-complex assay"}, "[6]": {"biological_target": "Cytoplasmic tyrosine-protein kinase BMX (Homo sapiens) (UniProt P51813)", "sequence (P51813 whole entry)": "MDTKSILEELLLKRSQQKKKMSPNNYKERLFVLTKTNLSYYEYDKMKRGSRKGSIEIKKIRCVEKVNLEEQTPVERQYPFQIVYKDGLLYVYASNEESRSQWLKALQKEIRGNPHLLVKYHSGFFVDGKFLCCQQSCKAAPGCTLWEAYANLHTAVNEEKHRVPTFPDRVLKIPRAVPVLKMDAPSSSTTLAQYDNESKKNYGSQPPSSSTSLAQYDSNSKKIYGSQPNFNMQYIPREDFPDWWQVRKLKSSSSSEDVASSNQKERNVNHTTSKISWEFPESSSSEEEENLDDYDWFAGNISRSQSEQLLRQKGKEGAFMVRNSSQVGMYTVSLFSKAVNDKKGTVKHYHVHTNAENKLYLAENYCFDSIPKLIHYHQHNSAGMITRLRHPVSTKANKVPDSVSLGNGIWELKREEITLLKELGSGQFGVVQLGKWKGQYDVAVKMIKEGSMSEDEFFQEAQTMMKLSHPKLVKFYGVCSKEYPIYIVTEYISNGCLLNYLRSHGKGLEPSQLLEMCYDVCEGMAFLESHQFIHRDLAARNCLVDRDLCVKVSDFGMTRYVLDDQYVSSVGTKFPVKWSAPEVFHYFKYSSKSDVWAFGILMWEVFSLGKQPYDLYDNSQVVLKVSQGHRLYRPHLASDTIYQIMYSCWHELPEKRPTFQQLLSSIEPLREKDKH", "test": "Inhibition of BMX (unknown origin) assessed as remaining activity at 1 uM by Kinome scan method relative to control"}, "[7]": {"biological_target": "Casein kinase I isoform alpha (Homo sapiens) (UniProt P48729)", "test": "Inhibition of human CK1alpha1 assessed as residual activity at 1 uM using casein as substrate in presence of 33P-ATP by ProQinase assay relative to control"}, "[8]": {"biological_target": "Tyrosine-protein kinase JAK1 (Homo sapiens) (UniProt P23458)", "sequence (P23458 whole entry, the tested form may be a part)": "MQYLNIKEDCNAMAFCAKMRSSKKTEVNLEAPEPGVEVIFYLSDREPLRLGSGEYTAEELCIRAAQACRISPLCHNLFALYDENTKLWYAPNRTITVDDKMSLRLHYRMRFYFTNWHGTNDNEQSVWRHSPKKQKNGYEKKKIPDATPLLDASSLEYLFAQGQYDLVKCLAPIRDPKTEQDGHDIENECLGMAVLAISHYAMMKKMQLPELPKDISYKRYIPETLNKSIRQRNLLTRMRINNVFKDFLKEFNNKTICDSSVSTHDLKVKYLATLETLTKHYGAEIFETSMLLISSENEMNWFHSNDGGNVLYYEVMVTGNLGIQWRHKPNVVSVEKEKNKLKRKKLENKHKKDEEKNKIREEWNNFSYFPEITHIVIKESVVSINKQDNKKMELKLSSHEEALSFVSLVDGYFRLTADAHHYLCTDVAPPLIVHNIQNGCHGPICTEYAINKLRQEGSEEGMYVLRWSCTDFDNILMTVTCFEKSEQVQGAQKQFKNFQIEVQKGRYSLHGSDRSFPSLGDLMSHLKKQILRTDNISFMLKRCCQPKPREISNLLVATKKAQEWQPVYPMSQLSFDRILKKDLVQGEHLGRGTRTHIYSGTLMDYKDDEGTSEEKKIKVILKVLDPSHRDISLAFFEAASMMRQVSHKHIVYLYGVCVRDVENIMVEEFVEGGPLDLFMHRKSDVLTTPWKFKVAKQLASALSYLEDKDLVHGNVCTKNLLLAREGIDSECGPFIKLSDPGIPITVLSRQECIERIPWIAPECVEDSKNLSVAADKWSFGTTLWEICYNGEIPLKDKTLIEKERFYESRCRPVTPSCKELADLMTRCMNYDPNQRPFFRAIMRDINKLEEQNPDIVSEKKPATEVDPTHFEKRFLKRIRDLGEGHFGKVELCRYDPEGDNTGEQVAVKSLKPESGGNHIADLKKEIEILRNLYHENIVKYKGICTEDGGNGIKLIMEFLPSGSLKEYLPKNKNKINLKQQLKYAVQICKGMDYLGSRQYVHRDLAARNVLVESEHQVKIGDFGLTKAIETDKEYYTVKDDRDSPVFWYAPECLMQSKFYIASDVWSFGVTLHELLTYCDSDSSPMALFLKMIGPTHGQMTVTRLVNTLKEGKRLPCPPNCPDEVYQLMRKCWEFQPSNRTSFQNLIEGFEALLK", "test": "Inhibition of JAK1 JH1 domain (unknown origin) assessed as remaining activity at 1 uM by Kinome scan method relative to control"}, "[9]": {"biological_target": "Tyrosine-protein kinase SYK (Homo sapiens) (UniProt P43405)", "test": "Inhibition of human SYK (1 to 635 residues) assessed as residual activity at 1 uM using polyEY as substrate in presence of 33P-ATP by ProQinase assay relative to control"}, "[10]": {"biological_target": "Mitogen-activated protein kinase kinase kinase 5 (Homo sapiens) (UniProt Q99683)", "sequence (Q99683 whole entry)": "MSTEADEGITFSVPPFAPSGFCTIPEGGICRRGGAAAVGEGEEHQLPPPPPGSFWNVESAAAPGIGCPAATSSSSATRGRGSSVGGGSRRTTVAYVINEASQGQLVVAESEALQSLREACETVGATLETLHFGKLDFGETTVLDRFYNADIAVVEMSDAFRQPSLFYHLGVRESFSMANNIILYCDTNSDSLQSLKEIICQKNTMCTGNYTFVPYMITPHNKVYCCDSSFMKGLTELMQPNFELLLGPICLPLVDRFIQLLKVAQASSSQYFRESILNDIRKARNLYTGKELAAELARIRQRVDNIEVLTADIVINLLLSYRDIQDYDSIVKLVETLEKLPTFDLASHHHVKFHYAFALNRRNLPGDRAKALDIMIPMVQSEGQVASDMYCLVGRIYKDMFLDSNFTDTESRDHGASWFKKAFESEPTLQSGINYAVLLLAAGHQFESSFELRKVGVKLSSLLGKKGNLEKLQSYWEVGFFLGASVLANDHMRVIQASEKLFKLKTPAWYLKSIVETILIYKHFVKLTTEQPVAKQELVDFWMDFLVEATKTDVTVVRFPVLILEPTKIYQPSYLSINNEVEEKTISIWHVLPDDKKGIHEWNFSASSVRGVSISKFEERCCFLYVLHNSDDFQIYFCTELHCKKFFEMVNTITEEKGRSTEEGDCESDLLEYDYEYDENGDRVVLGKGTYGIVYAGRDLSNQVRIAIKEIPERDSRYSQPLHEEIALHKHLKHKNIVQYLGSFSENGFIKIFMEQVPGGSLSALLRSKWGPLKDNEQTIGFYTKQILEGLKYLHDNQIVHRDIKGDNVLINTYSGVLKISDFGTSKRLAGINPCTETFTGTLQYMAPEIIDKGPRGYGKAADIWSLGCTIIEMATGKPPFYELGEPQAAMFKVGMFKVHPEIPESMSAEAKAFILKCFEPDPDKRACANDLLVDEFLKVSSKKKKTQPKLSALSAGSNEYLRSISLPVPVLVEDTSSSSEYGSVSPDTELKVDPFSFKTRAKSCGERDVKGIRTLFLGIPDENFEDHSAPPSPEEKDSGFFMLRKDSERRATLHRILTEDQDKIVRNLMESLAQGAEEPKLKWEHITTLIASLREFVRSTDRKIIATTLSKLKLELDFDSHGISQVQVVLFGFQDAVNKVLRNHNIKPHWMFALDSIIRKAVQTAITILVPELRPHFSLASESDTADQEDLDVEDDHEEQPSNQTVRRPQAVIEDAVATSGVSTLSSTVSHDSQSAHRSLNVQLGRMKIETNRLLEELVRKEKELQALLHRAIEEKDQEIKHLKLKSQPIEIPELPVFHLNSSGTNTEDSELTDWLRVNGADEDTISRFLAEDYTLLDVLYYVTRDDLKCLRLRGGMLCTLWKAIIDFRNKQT", "test": "Inhibition of ASK1 (unknown origin) assessed as remaining activity at 1 uM by Kinome scan method relative to control"}, "[11]": {"biological_target": "Aurora kinase B (Homo sapiens) (UniProt Q96GD4)", "test": "Inhibition of human AuroraB assessed as residual activity at 1 uM using bio-4xCHKT as substrate in presence of 33P-ATP by ProQinase assay relative to control"}, "[12]": {"biological_target": "Mitogen-activated protein kinase 13 (Homo sapiens) (UniProt O15264)", "sequence (O15264 whole entry)": "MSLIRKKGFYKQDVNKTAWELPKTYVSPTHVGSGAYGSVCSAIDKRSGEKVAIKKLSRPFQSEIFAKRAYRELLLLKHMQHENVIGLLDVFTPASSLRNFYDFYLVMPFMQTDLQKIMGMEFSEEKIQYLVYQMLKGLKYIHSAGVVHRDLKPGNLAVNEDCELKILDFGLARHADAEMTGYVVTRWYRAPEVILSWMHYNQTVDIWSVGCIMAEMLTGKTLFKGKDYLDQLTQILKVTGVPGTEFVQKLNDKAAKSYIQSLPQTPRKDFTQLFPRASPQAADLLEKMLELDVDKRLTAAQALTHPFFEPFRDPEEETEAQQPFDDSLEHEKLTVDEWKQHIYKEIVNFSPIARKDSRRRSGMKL", "test": "Inhibition of P38delta (unknown origin) assessed as remaining activity at 1 uM by Kinome scan method relative to control"}, "[13]": {"test": "Anti-inflammatory activity against human derived high respond PBMC cells assessed as inhibition in stimulated IL-1beta cytokine release incubated for 2 hrs in the presence of LPS/SEB/aCD28 by Luminex based sandwich immunoassay", "assay_type": "functional, cell-based"}, "[14]": {"biological_target": "Beta-adrenergic receptor kinase 1 (Homo sapiens) (UniProt P25098)", "test": "Inhibition of human GRK2 assessed as residual activity at 1 uM using casein as substrate in presence of 33P-ATP by ProQinase assay relative to control"}, "[15]": {"biological_target": "Serine/threonine-protein kinase 25 (Homo sapiens) (UniProt O00506)", "test": "Inhibition of human STK25 assessed as residual activity at 1 uM using casein as substrate in presence of 33P-ATP by ProQinase assay relative to control"}, "[16]": {"biological_target": "MAP kinase-interacting serine/threonine-protein kinase 2 (Homo sapiens) (UniProt Q9HBH9)", "sequence (Q9HBH9 whole entry, looked up)": "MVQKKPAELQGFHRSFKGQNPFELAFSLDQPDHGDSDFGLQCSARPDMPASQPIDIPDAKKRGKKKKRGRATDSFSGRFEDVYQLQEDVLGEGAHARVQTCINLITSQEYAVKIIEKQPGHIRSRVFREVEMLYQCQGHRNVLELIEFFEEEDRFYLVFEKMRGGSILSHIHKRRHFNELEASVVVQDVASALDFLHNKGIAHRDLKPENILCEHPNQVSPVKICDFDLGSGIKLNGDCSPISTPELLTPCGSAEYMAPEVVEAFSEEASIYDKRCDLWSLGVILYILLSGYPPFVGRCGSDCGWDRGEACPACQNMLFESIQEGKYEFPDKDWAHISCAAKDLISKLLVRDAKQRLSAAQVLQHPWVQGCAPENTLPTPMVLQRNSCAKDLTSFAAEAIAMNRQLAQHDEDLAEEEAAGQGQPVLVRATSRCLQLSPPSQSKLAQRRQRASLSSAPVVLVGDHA", "test": "Inhibition of human MKNK2 assessed as residual activity at 1 uM using RB-S6P as substrate in presence of 33P-ATP by ProQinase assay relative to control"}, "[17]": {"biological_target": "T1, Inhibitor of nuclear factor kappa-B kinase subunit alpha (Homo sapiens) (UniProt O15111)", "T1 sequence (whole entry)": "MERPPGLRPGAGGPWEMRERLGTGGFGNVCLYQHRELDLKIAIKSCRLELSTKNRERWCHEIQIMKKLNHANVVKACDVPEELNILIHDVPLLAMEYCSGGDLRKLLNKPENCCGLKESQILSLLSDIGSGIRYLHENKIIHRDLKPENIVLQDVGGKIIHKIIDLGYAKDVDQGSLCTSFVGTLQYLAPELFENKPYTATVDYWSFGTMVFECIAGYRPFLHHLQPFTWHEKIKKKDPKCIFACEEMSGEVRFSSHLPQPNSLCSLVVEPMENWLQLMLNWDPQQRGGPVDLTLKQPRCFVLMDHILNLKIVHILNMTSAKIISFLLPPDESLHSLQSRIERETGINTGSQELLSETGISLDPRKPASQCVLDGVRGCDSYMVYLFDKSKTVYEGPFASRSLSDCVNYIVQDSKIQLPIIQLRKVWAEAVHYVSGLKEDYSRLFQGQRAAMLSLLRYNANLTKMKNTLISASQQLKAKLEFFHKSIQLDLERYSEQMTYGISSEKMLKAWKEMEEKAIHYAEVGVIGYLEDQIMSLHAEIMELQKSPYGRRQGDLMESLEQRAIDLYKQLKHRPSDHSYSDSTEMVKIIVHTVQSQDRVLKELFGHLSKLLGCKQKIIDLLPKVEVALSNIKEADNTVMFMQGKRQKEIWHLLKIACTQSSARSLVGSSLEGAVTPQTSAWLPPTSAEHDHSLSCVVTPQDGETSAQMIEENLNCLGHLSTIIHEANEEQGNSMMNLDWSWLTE", "test": "Inhibition of human IKKalpha assessed as residual activity at 1 uM using RBER-CHKtide as substrate in presence of 33P-ATP by ProQinase assay relative to control"}, "[18]": {"biological_target": "Activin receptor type-2B (Homo sapiens) (UniProt Q13705)", "test": "Inhibition of ACVR2B (unknown origin) assessed as remaining activity at 1 uM by Kinome scan method relative to control"}, "[19]": {"biological_target": "Serine/threonine-protein kinase PRP4 homolog (Homo sapiens) (UniProt Q13523)", "test": "Inhibition of PRP4 (unknown origin) assessed as remaining activity at 1 uM by Kinome scan method relative to control"}, "[20]": {"test": "Anti-inflammatory activity against human derived medium respond PBMC cells assessed as inhibition in stimulated TNF-alpha cytokine release incubated for 2 hrs in the presence of LPS/SEB/aCD28 by Luminex based sandwich immunoassay", "assay_type": "functional, cell-based"}, "[21]": {"biological_target": "Dual specificity protein kinase TTK (Homo sapiens) (UniProt P33981)", "test": "Inhibition of TTK (unknown origin) assessed as remaining activity at 1 uM by Kinome scan method relative to control"}},
  "note": "pIC50: −log10 of the molar value.",
  "data": [
    {"smiles": "O=C1c2ccc(Nc3ccc(F)cc3F)cc2CCc2ccc(OC[C@H](O)CO)cc21", "note": "[Skepinone-L]", "values": [
      {"measurement": "Activity", "setting": "[1]", "value": 100, "unit": "%"},
      {"measurement": "Activity", "setting": "[2]", "value": 100, "unit": "%"},
      {"measurement": "Activity", "setting": "[3]", "value": 100, "unit": "%"},
      {"measurement": "Activity", "setting": "[4]", "value": 113, "unit": "%"},
      {"measurement": "Activity", "setting": "[5]", "value": 83, "unit": "%"},
      {"measurement": "Activity", "setting": "TAK1/TAB1 (Homo sapiens)", "value": 80, "unit": "%"},
      {"measurement": "Activity", "setting": "[6]", "value": 100, "unit": "%"},
      {"measurement": "Activity", "setting": "[7]", "value": 97, "unit": "%"},
      {"measurement": "Activity", "setting": "[8]", "value": 100, "unit": "%"},
      {"measurement": "Activity", "setting": "[9]", "value": 98, "unit": "%"},
      {"measurement": "Activity", "setting": "[10]", "value": 93, "unit": "%"},
      {"measurement": "Activity", "setting": "[11]", "value": 96, "unit": "%"},
      {"measurement": "Activity", "setting": "[12]", "value": 85, "unit": "%"},
      {"measurement": "pIC50", "setting": "[13]", "value": 7.52},
      {"measurement": "Activity", "setting": "[14]", "value": 83, "unit": "%"},
      {"measurement": "Activity", "setting": "[15]", "value": 100, "unit": "%"},
      {"measurement": "Activity", "setting": "[16]", "value": 96, "unit": "%"},
      {"measurement": "Activity", "setting": "[17]", "value": 88, "unit": "%"},
      {"measurement": "Activity", "setting": "[18]", "value": 83, "unit": "%"},
      {"measurement": "Activity", "setting": "[19]", "value": 100, "unit": "%"},
      {"measurement": "pIC50", "setting": "[20]", "value": 6.07},
      {"measurement": "Activity", "setting": "[21]", "value": 100, "unit": "%"}
    ]}
  ]
}
